Experimental findings from ChEMBL document CHEMBL3351953, “Inhibition of the Bacterial Adhesin FimH May Potentially Treat Inflammatory Bowel Diseases (IBD)” (ACS Med Chem Lett, 2014) are described below.

The term Kd denotes the concentration at which binding is half-saturated. A higher Kd goes with weaker binding.

The nature of this assay: Inhibition of Escherichia coli FimH by competitive binding assay.

`CNC(=O)c1cccc(-c2ccc(O[C@H]3O[C@H](CO)[C@@H](O)[C@H](C(O)[C@H]4O[C@H](CO)[C@@H](O)[C@H](O)[C@@H]4O)[C@@H]3O)cc2)c1` (stereo partly drawn) returned a dissociation constant Kd of 0.029 µM.

On to `O=C1NCC(c2ccc(O[C@H]3O[C@H](CO)[C@@H](O)[C@H](C[C@H]4O[C@H](CO)[C@@H](O)[C@H](O)[C@@H]4O)[C@@H]3O)cc2)=C(O)N1`, for which binding was put at a Kd of 0.111 µM.

`CNC(=O)c1ccc(-c2ccc(C)c(O[C@H]3O[C@H](CO)[C@@H](O)[C@H](C[C@H]4O[C@H](CO)[C@@H](O)[C@H](O)[C@@H]4O)[C@@H]3O)c2)cc1`: the Kd was 0.019 µM.
